Results taken from patent EP4744665A1, “COMBINATION OF POLQ INHIBITOR COMPOUND AND ANTI-CANCER THERAPEUTIC AGENT OR RADIOTHERAPY” (Simcere Zaiming Pharmaceutical Co., Ltd., priority 2023, dated 2025).

What was measured:
Experiment in all cases: Combined use with combination drug, matrix study, Bliss Independence model (Cell Titer Glo, 7 days)
Assay type in all cases: cell-based
[1] = tested on: DLD-1 BRCA2 (-/-)
Description: (§1) DLD-1 colorectal adenocarcinoma cells, DLD-1 BRCA2 (-/-) colorectal adenocarcinoma cells, SHP-77 human small cell lung cancer cells, NCI-H82 human small cell lung cancer cells, LNCAP prostate cancer cells, KURAMOCHI human ovarian cancer cells, A2780 human ovarian cancer cells, and NCI-H23 non-small cell lung cancer cells were cultured in a 1640 medium containing 10% fetal bovine serum. SKOV3 human ovarian cancer cells were cultured in a McCoy's 5A (modified) medium containing 10% fetal bovine serum. OVCAR3 ovarian cancer cells were cultured in a 1640 medium containing 20% fetal bovine serum and 10 µg/mL bovine insulin. MDA-MB-436 breast cancer cells (natural BRCA1 mutation) and A549 non-small cell lung cancer cells were cultured in a DMEM medium containing 10% fetal bovine serum. Capan-1 human pancreatic cancer cells (natural BRCA2 mutation) were cultured in an IMDM medium containing 20% fetal bovine serum. The cells were all cultured at 37 °C with 5% CO2. Cells at the logarithmic growth phase were available for the experiment.
(§2) 100 µL of the cell medium was added to rows A and H and columns 1 and 12 of a 96-well cell culture plate. Cultured cells were resuspended (adherent cells were digested with trypsin) and counted to give information on cell density and viability. The dilution ratio of the resuspended cells required for inoculating a fixed number of cells into 80 µL of the medium in each culture well was calculated based on the cell density information. After the resuspended cells were diluted with the corresponding medium, 80 µL of the diluted cells were transferred to columns 2-11 of rows B-G of a 96-well cell culture plate using an Eppendorf multi-channel pipette (60 wells in total for each plate). The cell culture plate was incubated overnight in an incubator at 37 °C with 5% CO2.
(§3) The test compound and the combination compound were dissolved in DMSO to give a 10 mM solution for later use. In the experiment, the compound was further diluted to the corresponding concentration according to the concentration designed in the experiment, and based on this concentration, serial gradient dilution was performed. Matrix study was performed at 8 or 7 dose concentrations of the test compound (the lowest dose concentration was 0, and other specific concentration values were shown in FIG. 1) and 7 or 8 dose concentrations of the combination compound (the lowest dose concentration was 0, and other specific concentration values were shown in FIG. 1). 10 µL of each of the diluted combination compound and test compound was added to the corresponding cell plate well, such that the final concentration of DMSO was 0.25%. The test compound and the cells were incubated in an incubator at 37 °C with 5% CO2 for another 7 days, Cell Titer Glo was added at 50 µL/well, and the luminescence value of each well was read using an Envision microplate reader.
(§4) The luminescence value of the well containing only the cell medium was taken as the background (RLUbackground, corresponding cell survival rate to be 0%), the cell well containing only 0.25% DMSO without the compound was taken as the maximum signal (RLUDMSO, corresponding cell survival rate to be 100%), and the luminescence values of the remaining wells containing cells and compounds at different concentrations were taken as RLUsample. The survival rate of each cell well was calculated as follows: Survival rate (%) = (RLUsample−RLUbackground)/(RLUDMSO−RLUbackground) × 100% [formula]
(§5) The interaction between drugs (synergistic, independent, or antagonistic) was statistically analyzed by the Bliss Independence model using Combenefit software (Bliss, C.I., Bacteriol. Rev., 1956, 20, 243-258). The model assumes that each drug acts independently. The theoretical expected action curve of the combination was calculated from the following equation: Bliss effect = effect A + effect B−effect A × effect B [formula] wherein effect A and effect B are the effects of drugs A and B alone at specific concentrations. […]

[2] = tested on: DLD1; conditions: combination with SN38 (Topoisomerase I inhibitor)
Description: as §1, §2, §3, §4, §5

[3] = tested on: MDA-MB-436
Description: as §1, §2, §3, §4, §5

[4] = combination with AZD5305 (PARP inhibitor)
[5] = combination with Niraparib (PARP inhibitor)

Measured: Combined effect

COc1ccc(Cl)cc1-c1cc(C)ncc1C(=O)Nc1nc2ncc(-c3ccc(C#N)cc3)nc2s1.[Na] [Sodium salt of compound I, Sodium Salt of 4-(5-Chloro-2-methoxyphenyl)-N-[6-(4-cyanophenyl)thiazolo[4,5-b]pyrazin-2-yl]-6-methylnicotinamide]
Synergistic: [1]; [4] | [1]; [5] | [2] | [3]; [4] | [3]; combination with AZD7648 (DNA-PK inhibitor) | [3]; [5] | [3]; combination with Olaparib (PARP inhibitor)
